Reference: ChEMBL document CHEMBL1157921, “Selective targeting of 2'-deoxy-5-fluorouridine to urokinase positive malignant cells in vitro” (Bioorg Med Chem Lett, 2010)
The source made the active and inactive calls. The calls are words filed in the database; no cut-off is given here.

What was measured:
Type in all cases: functional, cell-based
MCF7 [1] = assay: Cytotoxicity against human MCF7 cells overexpressing urokinase plasminogen activator at > 144 uM
MCF7 [2] = assay: Cytotoxicity against human MCF7 cells overexpressing urokinase plasminogen activator at > 20.3 uM
MDA-MB-231 = assay: Cytotoxicity against human MDA-MB-231 cells overexpressing urokinase plasminogen activator

Row | SMILES | inhibition (MCF7 [1]) | inhibition (MCF7 [2]) | IC50 (MDA-MB-231)
1 | O=C(O)CCC(=O)O[C@H]1C[C@H](n2cc(F)c(=O)[nH]c2=O)O[C@@H]1CO | inactive |  | 
2 | O=c1[nH]c(=O)n([C@H]2C[C@H](O)[C@@H](CO)O2)cc1F [FLOXURIDINE] |  | inactive | 210 nM
